What was measured:
[1] = VA-HIT subgroup analysis: diabetes and hyperinsulinemia, CHD and stroke events, mortality; format: in vivo, men; design: Overall Risk Reduction with Gemfibrozil (cardiovascular or cerebrovascular event) / Overall Risk Reduction with Gemfibrozil: concentration or dose not given beside the values; conditions: for Five Year Event Rate, Stroke / Five Year Event Rate, CHD: Gemfibrozil Group
Source text: Determining whether an individual has Type 2 diabetes and/or hyperinsulinemia can be done using assays that are well known in the art. Several assays are commercially available. The levels that define whether an individual has Type 2 diabetes or hyperinsulinemia vary depending on the type of assay used. An example of an assay that can measure glucose tolerance or glucose levels is one that uses glucose oxidase as a reagent. Using such a test, levels of fasting glucose of greater than or equal to about 126 mg/dL characterize a type 2 diabetic. An assay referred to as “Coat-A-Count” (Diagnostic Products, Los Angeles, Calif.) is an example of an assay that measures insulin. Levels of fasting insulin above about 40 μU/mL using the Coat-A-Count assay are levels that characterize an individual with hyperinsulinemia. For the data described in Example 2, insulin resistance (hyperinsulinemia) was defined by the levels of insulin determined in the Framingham Offspring Population. Meigs J B, et al., Metabolic Risk Factors Worsen Continuously Across the Spectrum of Nondiabetic Glucose Tolerance, The Framingham Offspring Study. Ann Intern Med 128:524-533 (1998). Subjects, described in Example 2, were designated as diabetic by having a history of diabetes or a fasting plasma glucose of about 126 mg/dL or greater and as being hyperinsulinemic with a fasting plasma insulin of about 40 μU/mL or greater. This value of insulin marked the 90th percentile of values for subjects with normal glucose tolerance in the Framingham Offspring Study. This value also corresponded to the level of insulin at which there was a significant increase in CHD events in Example 2.
Fibric acid decreases incidence of vascular events in diabetic patients (e.g., events that cause the heart to have irregular rhythms such as ventricular fibrillation, ventricular tachycardia, asystole, and includes, for example, myocardial infarction, angina, and death).
Diabetes mellitus (DM) has long been recognized as a major risk factor for a vascular atherothrombotic event, most particularly coronary heart disease and cerebrovascular disease. […] Although patients with DM were not singled out as a specific recruitment target (i.e., not a specific target for fibrate therapy in VA-HIT), patients with DM frequently have a low HDL-C and, thus, were clearly eligible for VA-HIT and treatment with the fibrate, genfibrozil.
Thus, 31% of VA-HIT patients had diabetes. […] There is evidence that patients with high insulin levels (i.e., patients with “hyperinsulinemia” or “insulin resistance”) but without overt DM have as high a risk of coronary heart disease as is associated with DM itself. Consequently, 47% of patients in VA-HIT had either DM or hyperinsulinemia and in this large subgroup of patients, both coronary heart disease (CHD) events and stroke were higher than in the remainder of VA-HIT patients and the benefit of fibrate therapy was greater.

[2] = VA-HIT trial: percent change in plasma lipids with gemfibrozil vs placebo; format: in vivo, men; conditions: for Effect on HDL-C level (in words): compared to controls treated with placebo
Experimental: Lipoproteins levels and triglyceride levels are measured and assessed using routine methods known in the art. Commercially available kits and assays may be used to evaluate the level of HDL-C, LDL-C and level of triglyceride.
(§1) This study, the Veterans Administration HDL-C Intervention Trial (VA-HIT), was a seven year, 20 center, randomized, placebo-controlled, double blind secondary prevention trial designed to determine if a fibric acid (e.g., gemfibrozil) reduced the incidence of myocardial infarction (MI) and CHD death in male patients who have low levels of both HDL-C and LDL-C. […] Primary endpoints and the secondary endpoint, stroke, were adjudicated by blinded committees using standard criteria. Gemfibrozil (1200mg/day, orally) was selected with the goal of raising HDL-C and lowering triglycerides (TG) without affecting LDL-C.
(§2) “Low HDL-C” was defined as less than 40 mg/dL and “low LDL-C” was defined as less than 140 mg/dL values which are based on the entrance lipid criteria for the population enrolled in VA-HIT. With these lipid criteria, the mean entrance value at baseline of HDL-C was 32 mg/dL and of LDL-C was 111 mg/dL.
(§3) 2531 patients were enrolled and followed for a median of 5 years. Compliance, lipid changes, endpoints rates, losses to follow-up, and crossovers to active treatment have been consistent with the original projections. At baseline, the mean age was 64 yrs; average lipid values were, in mg/dL: HDL-C 32; TG 161; LDL-C 111; total cholesterol 176. (For comparison, the mean baseline LDL-C in recent major secondary prevention trials was 189 in the Scandinavian Simvastatin Survival Study, 139 in the Cholesterol and Recurrent Events study, and 150 in the Long-Term Intervention with Pravastatin in Ischemic Disease study). The mean body mass index was 29±5. The prevalence of diabetes was 31% and of hypertension 57%. Aspirin and beta blockers were used by 82%, and 43% of patients, respectively.
(§4) VA-HIT was a major clinical trial to investigate whether lipid therapy benefits people with heart disease whose primary lipid abnormality is a low level of HDL-C. The VA-HIT study enrolled 2531 male veterans with heart disease who had low levels of LDL-C cholesterol and low levels of HDL-C cholesterol. The average LDL-C level was 111 mg/dL and HDL-C was 32 mg/dL. Patients were randomly assigned to receive either gemfibrozil or a placebo.
(§5) 2531 men with CHD enrolled in trial 1991-1993. The trial ended 7/31/98 with median follow-up of 5.1 years. Vital status of patients known is 99.2%. 71% remained on assigned therapy at end of trial which is about the average in a long trial.

[3] = VA-HIT trial: CHD death, nonfatal MI, stroke and other clinical endpoints, adverse events; format: in vivo; conditions: for Relative risk reduction, CHD death/nonfatal MI (heart attacks and cardiac deaths): primary endpoint, p=0.0063
Source text: as §1, §2, §3, §4
The reduction in the incidence or severity of vascular disease was determined by comparing data from individuals undergoing the methods of the present invention to those who were not. Data regarding the incidence or occurrence of a vascular event including death were obtained from control patients having the same or similar disease states under the same or similar conditions as the individual undergoing the methods of the present invention. The control patient received a placebo, as opposed to the test patients who received the lipid modifying drug.
as §5

[4] = gemfibrozil 1200 mg/day orally, men with CHD, low HDL-C and low LDL-C, statistically significant difference vs placebo

Cc1ccc(C)c(OCCCC(C)(C)C(=O)O)c1 [Gemfibrozil, 5-(2,5-dimethylphenoxy)-2,2-dimethylpentanoic acid]
RRR (relative risk reduction with gemfibrozil), All-Cause Mortality ([1]; Diabetes + Hyperinsulinemia alone, N 1157, P 0.021): 26%
RRR (relative risk reduction with gemfibrozil), CHD Death ([1]; Diabetes, N 769, P 0.016): 41%
RRR (relative risk reduction with gemfibrozil), All-Cause Mortality ([1]; Diabetes, N 769, P 0.059): 25%
Five Year Event Rate, Stroke ([1]; subgroup All Others, placebo 4.0): 3.2%
Five Year Event Rate, CHD ([1]; subgroup All Others, placebo 16.6): 15.3%
Five Year Event Rate, Stroke ([1]; subgroup Diabetes, placebo 10.5): 6.6%
Five Year Event Rate, CHD ([1]; subgroup Diabetes, placebo 29.4): 21.2%
Five Year Event Rate, Stroke ([1]; subgroup Hyperinsulinemia (includes hyperinsulinemia + diabetes), placebo 8.1): 6.2%
Five Year Event Rate, CHD ([1]; subgroup Hyperinsulinemia (includes hyperinsulinemia + diabetes), placebo 27.7): 20.9%
Five Year Event Rate, Stroke ([1]; subgroup Hyperinsulinemia alone, placebo 4.3): 4.7%
Five Year Event Rate, CHD ([1]; subgroup Hyperinsulinemia alone, placebo 23.1): 16.8%
5-year incidence rate of all-cause mortality (in words) ([1]; patients with DM and isolated hyperinsulinemia analysed together): significantly reduce
Overall Risk Reduction with Gemfibrozil ([1]; subgroup All Others): 10.3%
Overall Risk Reduction with Gemfibrozil (cardiovascular or cerebrovascular event) ([1]; subgroup Diabetes): 30.3%
Overall Risk Reduction with Gemfibrozil ([1]; subgroup Hyperinsulinemia (includes hyperinsulinemia + diabetes)): 24.2%
Overall Risk Reduction with Gemfibrozil ([1]; subgroup Hyperinsulinemia alone): 21.7%
Reduction of CHD death (in words) ([1]; subgroup of patients with DM and hyperinsulinemia): particularly effective
Effect on HDL-C level (in words) [2]: significantly raised
Effect on HDL-C level (in words) ([2]; listed as gemfibrozil): significantly increased
Effect on LDL-C level (in words) ([2]; compared to placebo): did not lower
Effect on triglycerides (in words) ([2]; compared to placebo): lowered
Effect on LDL-C level (in words) ([2]; compared to placebo, listed as gemfibrozil): no effect
Percent change in Lipids: LDL-C ([2]; gemfibrozil 1200 mg/day orally, men with CHD, low HDL-C and low LDL-C, not marked significant): +3.6%
Percent change in Lipids: HDL-C [2, 4]: +7.5%
Percent change in Lipids: Triglycerides [2, 4]: −24.5%
Percent change in Lipids: total cholesterol [2, 4]: −2.9%
Effectiveness in subgroups (in words) ([3]; both diabetics and non-diabetics, younger as well as older patients): effective
New or recurrent CHD events, including nonfatal MI, CHD death, certain forms of stroke or TIA (in words) ([3]; gemfibrozil 1200 mg/day): significant reduction
Primary endpoint CHD death/nonfatal MI, rate in treatment group ([3]; gemfibrozil 1200 mg/day, median follow-up 5.1 years, placebo 22%): 17%
Major adverse events (deaths from any cause and cancer monitored) ([3]; gemfibrozil 1200 mg/day, seven year study): not associated with any major adverse events
Incidence rate: carotid endarterectomy ([3]; gemfibrozil group, placebo 3.5%): 1.3%
Incidence rate: transient ischemia attack (TIA) ([3]; gemfibrozil group, placebo 4.2%): 1.7%
Incidence rate: total reported stroke ([3]; gemfibrozil group, placebo 7.0%): 5.0%
Incidence rate: hospitalization for congestive heart failure ([3]; gemfibrozil group, placebo 13.3%): 10.6%
Reduction in combined endpoint of heart attacks, cardiac deaths, and strokes ([3]; gemfibrozil vs placebo, p=0.0011): 24%
Relative risk reduction, CHD death/nonfatal MI (heart attacks and cardiac deaths) ([3]; gemfibrozil vs placebo, listed as GEMFIBROZIL): 22%
Relative risk reduction, CHD death/nonfatal MI (heart attacks and cardiac deaths) ([3]; gemfibrozil vs placebo, listed as gemfibrozil): 22%
Number of patients needed to be treated to prevent one heart attack, cardiac death, or stroke ([3]; over a time period (e.g., between 1 and 5 years)): 18 patients

Source: patent publication US20020123524A1, “Treatment of vascular events using lipid-modifying compositions” (priority 1998, published 2002)
